Source: ChEMBL document CHEMBL1158540, “Heterocyclic cycloalkanol ethylamines as norepinephrine reuptake inhibitors” (Bioorg Med Chem Lett, 2010)

Legend:
[1] = molecular target: T1, Sodium-dependent noradrenaline transporter (Homo sapiens, UniProt P23975); test: Inhibition of human NET transfected in MDCK-Net6 cells at 1 uM; type: cell-based
Rattus norvegicus [2] = test: Effect on temperature homeostasis in telemetric ovariectomy-induced thermoregulatory dysfunction rat model assessed as mean reduction of tail skin temperature from baseline at 30 mg/kg, ip after 6 hrs; type: functional; details: route intraperitoneal
Rattus norvegicus [3] = test: Effect on temperature homeostasis in telemetric ovariectomy-induced thermoregulatory dysfunction rat model assessed as maximum reduction of tail skin temperature from baseline at 30 mg/kg, ip fter 6 hrs; type: functional; details: route intraperitoneal
[4] = molecular target: T1, Sodium-dependent noradrenaline transporter
[5] = molecular target: T2, Sodium-dependent dopamine transporter (Homo sapiens, UniProt Q01959); test: biochemical
T2 sequence (Q01959 whole entry): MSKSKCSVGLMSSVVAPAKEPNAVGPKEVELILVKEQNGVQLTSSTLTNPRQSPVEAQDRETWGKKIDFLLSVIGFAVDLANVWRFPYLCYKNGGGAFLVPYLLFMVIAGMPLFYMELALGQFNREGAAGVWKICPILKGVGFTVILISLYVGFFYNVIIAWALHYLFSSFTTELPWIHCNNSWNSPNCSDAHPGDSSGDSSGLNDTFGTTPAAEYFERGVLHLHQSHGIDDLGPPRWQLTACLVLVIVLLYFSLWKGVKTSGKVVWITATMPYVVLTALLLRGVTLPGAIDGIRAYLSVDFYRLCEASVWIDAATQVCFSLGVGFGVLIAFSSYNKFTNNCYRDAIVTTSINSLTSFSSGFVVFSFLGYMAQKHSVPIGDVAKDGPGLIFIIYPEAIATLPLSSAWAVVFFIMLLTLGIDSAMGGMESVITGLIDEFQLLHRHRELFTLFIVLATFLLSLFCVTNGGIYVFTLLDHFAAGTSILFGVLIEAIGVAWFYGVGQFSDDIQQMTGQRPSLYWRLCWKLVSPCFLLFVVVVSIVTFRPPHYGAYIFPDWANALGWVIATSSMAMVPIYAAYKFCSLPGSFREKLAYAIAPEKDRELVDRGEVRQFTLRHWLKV
Description: Displacement of [3H]WIN-35428 form human DAT expressed in CHO cell membranes

[6] = molecular target: T3, Sodium-dependent serotonin transporter (Homo sapiens, UniProt P31645); test: Inhibition of human SERT expressed in human JAR cells at 1 uM; type: cell-based
Target sequence in this assay (P31645 whole entry, looked up): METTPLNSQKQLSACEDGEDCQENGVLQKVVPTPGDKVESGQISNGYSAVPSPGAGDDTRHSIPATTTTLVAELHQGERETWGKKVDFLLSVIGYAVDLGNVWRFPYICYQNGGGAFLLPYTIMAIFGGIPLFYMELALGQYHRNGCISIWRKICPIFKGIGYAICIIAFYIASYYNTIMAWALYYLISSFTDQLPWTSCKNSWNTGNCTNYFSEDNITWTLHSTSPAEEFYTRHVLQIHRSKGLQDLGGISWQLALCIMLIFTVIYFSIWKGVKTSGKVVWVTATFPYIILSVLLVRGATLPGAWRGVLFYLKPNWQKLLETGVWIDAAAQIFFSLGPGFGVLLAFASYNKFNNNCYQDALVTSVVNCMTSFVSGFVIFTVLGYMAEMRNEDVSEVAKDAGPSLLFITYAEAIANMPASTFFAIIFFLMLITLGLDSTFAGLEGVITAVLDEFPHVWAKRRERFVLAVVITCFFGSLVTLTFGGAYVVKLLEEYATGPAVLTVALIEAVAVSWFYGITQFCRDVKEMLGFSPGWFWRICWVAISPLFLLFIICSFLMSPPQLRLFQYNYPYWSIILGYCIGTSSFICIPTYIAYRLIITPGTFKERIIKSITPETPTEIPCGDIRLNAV

[7] = molecular target: T2, Sodium-dependent dopamine transporter; test: Inhibition of [3H]WIN-35428 binding to human DAT expressed in CHO membranes at 1000 nM; type: cell membranes
Rattus norvegicus [8] = test: Effect on temperature homeostasis in telemetric ovariectomy-induced thermoregulatory dysfunction rat model assessed as mean reduction of tail skin temperature from baseline at 30 mg/kg, ip after 5.5 hrs; type: functional; details: route intraperitoneal
Rattus norvegicus [9] = test: Effect on temperature homeostasis in telemetric ovariectomy-induced thermoregulatory dysfunction rat model assessed as maximum reduction of tail skin temperature from baseline at 30 mg/kg, ip fter 5.5 hrs; type: functional; details: route intraperitoneal
[10] = Half life in rat microsomes; type: ADME, Microsome
[11] = molecular target: T3, Sodium-dependent serotonin transporter; type: cell-based, JAR
Target sequence in this assay (P31645 whole entry): as the sequence (P31645 whole entry, looked up) above

Rattus norvegicus [12] = test: Effect on temperature homeostasis in telemetric ovariectomy-induced thermoregulatory dysfunction rat model assessed as mean reduction of tail skin temperature from baseline at 30 mg/kg, sc after 6.5 hrs; type: functional; details: route subcutaneous
Rattus norvegicus [13] = test: Effect on temperature homeostasis in telemetric ovariectomy-induced thermoregulatory dysfunction rat model assessed as mean reduction of tail skin temperature from baseline at 30 mg/kg, po after 3 hrs; type: functional
Rattus norvegicus [14] = test: Effect on temperature homeostasis in telemetric ovariectomy-induced thermoregulatory dysfunction rat model assessed as maximum reduction of tail skin temperature from baseline at 30 mg/kg, sc fter 6.5 hrs; type: functional; details: route subcutaneous
Rattus norvegicus [15] = test: Effect on temperature homeostasis in telemetric ovariectomy-induced thermoregulatory dysfunction rat model assessed as maximum reduction of tail skin temperature from baseline at 30 mg/kg, po after 3 hrs; type: functional

T1 sequence (P23975 whole entry): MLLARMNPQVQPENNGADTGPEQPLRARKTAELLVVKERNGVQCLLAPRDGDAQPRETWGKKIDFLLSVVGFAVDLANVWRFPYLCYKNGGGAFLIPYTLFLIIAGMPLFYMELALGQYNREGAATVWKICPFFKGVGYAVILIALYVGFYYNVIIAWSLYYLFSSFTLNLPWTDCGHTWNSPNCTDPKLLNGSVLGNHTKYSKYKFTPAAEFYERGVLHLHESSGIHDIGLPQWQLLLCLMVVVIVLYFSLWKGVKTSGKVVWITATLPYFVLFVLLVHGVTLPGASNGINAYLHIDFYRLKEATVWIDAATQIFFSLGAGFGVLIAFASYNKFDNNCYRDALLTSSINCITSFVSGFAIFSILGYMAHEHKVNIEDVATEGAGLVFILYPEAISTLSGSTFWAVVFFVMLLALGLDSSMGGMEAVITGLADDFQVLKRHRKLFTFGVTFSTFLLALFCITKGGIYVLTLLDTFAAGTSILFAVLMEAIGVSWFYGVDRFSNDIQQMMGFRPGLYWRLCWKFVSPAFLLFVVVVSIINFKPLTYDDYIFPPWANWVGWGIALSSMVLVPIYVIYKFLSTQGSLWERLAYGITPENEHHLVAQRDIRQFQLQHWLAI

| Compound | INH [1] [µM] | IC50 [4] [nM] | IC50 [5] [nM] | INH [6] [µM] | further results |
| --- | --- | --- | --- | --- | --- |
| OC1(C(CN2CCNCC2)c2cc3ccccc3s2)CCCCC1 (stereo not given) | 73 | 550 |  | 89 | inhibition [7]: 61% |
| OC1(C(CN2CCNCC2)c2cc(Cl)sc2Cl)CCCCC1 (stereo not given) | 94 | 225 |  | 12.2 |  |
| OC1(C(CN2CCNCC2)c2cnc3ccccc3c2)CCCCC1 (stereo not given) | 19 |  |  |  |  |
| OC1(C(CN2CCNCC2)c2cccs2)CCCCC1 (stereo not given) | 54 |  |  |  |  |
| OC1(C(CN2CCNCC2)c2csc3ccccc23)CCCCC1 (stereo not given) | 82 | 255 |  | 48 | inhibition [7]: 51% |
| CN1CCN(C[C@H](c2cccc(Cl)c2)C2(O)CCCCC2)CC1 | 92 | 30 | 175 |  |  |
| OC1(C(CN2CCNCC2)c2c[nH]c3ccccc23)CCCCC1 (stereo not given) | 21 |  |  | 90 |  |

Continued, in another order:

| INH [1] [µM] | IC50 [4] [nM] | IC50 [5] [nM] | INH [6] [µM] | Compound | further results |
| --- | --- | --- | --- | --- | --- |
| 88 | 95 | 389 |  | CN1CCN(CC(c2csc(Cl)c2)C2(O)CCCCC2)CC1 (stereo not given) | Activity (Rattus norvegicus [2]): -2.75 °C; Activity (Rattus norvegicus [3]): -4.2 °C |
| 0 | 18000 | > 6000 |  | CN1CCN(C[C@@H](c2csc(Cl)c2)C2(O)CCCCC2)CC1 |  |
| 91 | 57 | 212 |  | CN1CCN(C[C@H](c2csc(Cl)c2)C2(O)CCCCC2)CC1 | Activity (Rattus norvegicus [8]): -3.3 °C; Activity (Rattus norvegicus [9]): -4.6 °C |
| 55 | 720 |  | 34 | OC1(C(CN2CCNCC2)c2ccsc2Cl)CCCCC1 (stereo not given) |  |
| 32 |  |  |  | Cn1cc(C(CN2CCNCC2)C2(O)CCCCC2)c2ccccc21 (stereo not given) |  |
| 50.8 |  |  |  | OC1(C(CN2CCNCC2)c2ccc(Cl)s2)CCCCC1 (stereo not given) |  |
|  | 56 | 247 |  | CN1CCN(CC(c2cccc(Cl)c2)C2(O)CCCCC2)CC1 (stereo not given) | half-life [10]: < 1 min; IC50 [11]: > 2000 nM; Activity (Rattus norvegicus [12]): -2.6 °C; Activity (Rattus norvegicus [13]): -3.1 °C; Activity (Rattus norvegicus [14]): -3.5 °C; Activity (Rattus norvegicus [15]): -3.8 °C |
|  | 576 | 30 | 32 | CN1CCN(C[C@@H](c2cccc(Cl)c2)C2(N)CCCCC2)CC1 |  |
| 86 | 100 |  |  | OC1(C(CN2CCNCC2)c2csc(Cl)c2)CCCCC1 (stereo not given) | inhibition [7]: 43% |
